Values quoted from earlier work in patent US20030216337A1, “Composition and imaging methods for pharmacokinetic and pharmacodynamic evaluation of therapeutic delivery system” (priority 2002, published 2003).

half-life (in humans, unincorporated IUdR / resulting compound): less than minutes
SMILES: O=c1[nH]c(=O)n([C@H]2C[C@H](O)[C@@H](CO)O2)cc1I [IUdR, 5-Iodo-2′-deoxyuridine]
catabolism of unincorporated IUdR (unincorporated into DNA): rapidly catabolized to iodouracil and/or dehalogenated
